# Source: patent publication US20160235807A1, “AGONISTS OF GUANYLATE CYCLASE USEFUL FOR DOWNREGULATION OF PRO-INFLAMMATORY CYTOKINES” (SYNERGY PHARMACEUTICALS, INC., priority 2013, published 2016)
# Entries after “also recorded” stand apart in the source; their conditions may differ. Bridge positions count the residues as written; N and C are the ends. Square brackets hold non-standard residues; d marks the D form. Peptide text beside a SMILES is read from it.
# How the values were obtained:
# [1] = assay type: in vitro ADME
# Method: Plecanatide and SP-333 were incubated in simulated intestinal fluid (SIF) for 6-24 h. Inactivated SIF was used as a control. Following the treatment, samples were analyzed by HPLC by cGMP production in T84 cells. […] The active metabolite, SP-338 was characterized by MS and MS/MS and identified to be formed via removal of carboxyl terminal leucine possibly due to cleavage by carboxypeptidases.
# [2] = system: Ki-67 labeling of crypt epithelial cells; assay: Ki-67 labeling in large bowel cross sections, DSS-induced colitis in BDF-1 mice; assay type: in vivo, mouse
# From the text: (§1) A total of 40 samples were chosen for analysis of MPO activity and Ki-67 labeling from the treatment groups that received SP-333, its vehicle control (0.1M phosphate buffer, pH 7) and the reference compound (5-ASA). A random number generator (www.random.org) was employed to select samples from these groups (7 from each of the SP-333-recipient groups and 6 from each of the vehicle and 5-ASA groups).
# Employing standard procedures, two non-serial sections from each animal, were de-waxed in xylene and rehydrated in graded alcohols to PBS (pH 7.4). Endogenous peroxidase was blocked by incubation in 0.3% […] for 30 min. Antigen retrieval was performed by placing the slides in 1 L of citrate buffer (pH 6) and microwaving at high power for 20 minutes. After cooling for 15 minutes, sections were incubated with 10% normal goat serum for 30 minutes to block non-specific binding Primary antibody (mouse monoclonal IgG, clone MIB-1, Dako) at 1/50 dilution was added and incubated for 1 hour at room temperature. Sections were washed and incubated with biotinylated secondary IgG antibody (1/200 dilution; Vector Labs Inc.), for 45 minutes at room temperature. Subsequently, slides were washed and incubated with ABC Elite reagents (Vector Labs Inc.), for 30 minutes at room temperature. […] Sections were counterstained with thionine, dehydrated and mounted.
# [3] = system: T84 cells; assay: Quantitative RT-PCR for transcripts in T84 cells; assay type: cell-based, human
# Method: T-84 cells (˜10^7 cells) were treated with 1 μM SP-333 for 5 h. Subsequently, cDNA was prepared from total RNA using High Capacity RNA-to-cDNA Kit (Applied Biosystems, Carlsbad, Calif.) according to manufacturer's instructions. Quantitative Real-Time PCR amplification and analysis were carried out using Lightcycler 480 (Roche, Basel Switzerland), p65 and IKK-13 specific Taqman gene expression assays and Lightcycler 480 Probe master. All amplification assays were performed in duplicate employing 20 ng cDNA (based on input RNA). The total reaction volume was adjusted to 20 μL with appropriate amounts of TaqMan gene expression assays, Lightcycler 480 probe master and distilled water, then subjected to 45 PCR cycles using default cycling parameters. GAPDH transcript was used as endogenous control. The data generated were analyzed and expressed as target gene expression relative to endogenous control using comparative Cp method and 2^−ΔΔCp formula (comparative Cp values and advanced quantitative relative quantification method). TaqMan reagents were obtained from Applied Biosystems (Carlsbad, Calif.).
# T-84 cells were treated with 1 μM SP-333 for 5 hours. Subsequently, cDNA was prepared from total RNA and subjected to quantitative Real-Time PCR using TaqMan reagents from Applied Biosystems.
# [4] = system: DSS-induced colitis; assay: DSS-induced colitis in BDF-1 mice; assay type: in vivo, mouse
# Method: To evaluate the efficacy of plecanatide in DSS induced colitis model, 48 BDF-1 mice were divided into 8 treatment groups (6 mice/group). One group was not exposed to DSS (untreated control) and groups 2-8 were treated with 5% DSS in the drinking water on day 0. Plecanatide or SP-333 solutions formulated in 0.1M phosphate buffer (pH 7) was administered by oral gavage, once a day at 0.005, 0.05, 0.5, 2.5 and 5 mg/kg, from study day −1 (i.e. prior to initiation of DSS treatment) through day 6 for SP-333 or day 7 for plecanatide. DSS treatment was initiated on day 0 for groups 2-8 until the end of the study. Sulfasalazine (80 mg/kg) or 5-ASA (100 mg/kg) was used as positive control and was administered daily. Mice were sacrificed on day 7. The large intestine was removed and weighed. Distal section of the large intestine was collected and fixed as described above.
# Disease activity index (DAI) was calculated by scoring in-life parameters starting from day −1 until the end of the study. Once daily, all mice were weighed and assessed for stool consistency, and the presence of overt blood in the stool or around the anus essentially similar to that reported earlier. Colitis severity was assessed by histopathological analyses of H&E stained tissue sections (Hegazi et al., 2005; Dave et al., 2009) employing the following criteria: (score 0) normal appearing crypts; (score 1) abnormal crypt pathology without ulceration; (score 2) depleted crypts with ulceration; (score 3) 20-50% depleted crypts and increased ulceration; (score 4) >50% depleted crypts with substantial ulceration and (score 5) totally ulcerated/inflamed colon with no crypts remaining. All slides were scored in a blinded manner. Colitis severity in TCRα−/− model was scored as previously described^25. All slides were scored in a blinded manner. Disease activity index (DAI) was calculated by assessing body weight, stool consistency, and the presence of overt blood in stools or around the anus, essentially similar to that reported earlier (Hamamoto et al., 1999).
# [5] = molecular target: T1, GC-C Receptor (Homo sapiens, UniProt P25092); assay: cGMP stimulation assay in T84 cells in the presence of zaprinast (Example 2); assay type: cell-based
# T1 construct: endogenous in cells; host or cells: T84 human colon carcinoma cells
# Method: Confluent monolayers of T84 cells in 24-well plates were pre-incubated with indicated amounts of SP-333 in the presence of zaprinast for 30 minutes at 37° C. Subsequently, the reaction was terminated by 3% perchloric acid and neutralized with 0.5N NaOH. Intracellular cGMP levels were determined in lysates using a ELISA kit (Cayman Chemical). All samples were analyzed in duplicates. Total protein was quantitated using Pierce BCA protein assay (Thermo Fisher Scientific).
# [6] = system: myeloperoxidase (MPO) activity in colon tissues; assay: MPO activity in lysates from mid-colon tissues, DSS-induced colitis in BDF-1 mice; assay type: in vivo, mouse
# Method: as §1
# Myeloperoxidase activity in colonic tissue samples was performed according to the method described (Krawisc et al., 1984). Briefly, the rate of change in absorbance at 450 nm was recorded when 20 μl of tissue extract was incubated with […] of reaction buffer containing 0.26 mg/ml 0-dianisidine and 0.6 μl/ml H2O2. Each reaction was performed in triplicate. The rate of reaction was determined (initial slope) and normalized to protein concentration of sample.
# [7] = SP-333 1 μM, 5 h, compared to unstimulated T84 cells, FIG. 3D
# [8] = T84 cells, compared to untreated cells, FIG. 16
# [9] = SP-333 0.005 to 5 mg/kg oral daily, vs DSS alone or DSS plus vehicle
# T1 sequence (P25092 24-1073): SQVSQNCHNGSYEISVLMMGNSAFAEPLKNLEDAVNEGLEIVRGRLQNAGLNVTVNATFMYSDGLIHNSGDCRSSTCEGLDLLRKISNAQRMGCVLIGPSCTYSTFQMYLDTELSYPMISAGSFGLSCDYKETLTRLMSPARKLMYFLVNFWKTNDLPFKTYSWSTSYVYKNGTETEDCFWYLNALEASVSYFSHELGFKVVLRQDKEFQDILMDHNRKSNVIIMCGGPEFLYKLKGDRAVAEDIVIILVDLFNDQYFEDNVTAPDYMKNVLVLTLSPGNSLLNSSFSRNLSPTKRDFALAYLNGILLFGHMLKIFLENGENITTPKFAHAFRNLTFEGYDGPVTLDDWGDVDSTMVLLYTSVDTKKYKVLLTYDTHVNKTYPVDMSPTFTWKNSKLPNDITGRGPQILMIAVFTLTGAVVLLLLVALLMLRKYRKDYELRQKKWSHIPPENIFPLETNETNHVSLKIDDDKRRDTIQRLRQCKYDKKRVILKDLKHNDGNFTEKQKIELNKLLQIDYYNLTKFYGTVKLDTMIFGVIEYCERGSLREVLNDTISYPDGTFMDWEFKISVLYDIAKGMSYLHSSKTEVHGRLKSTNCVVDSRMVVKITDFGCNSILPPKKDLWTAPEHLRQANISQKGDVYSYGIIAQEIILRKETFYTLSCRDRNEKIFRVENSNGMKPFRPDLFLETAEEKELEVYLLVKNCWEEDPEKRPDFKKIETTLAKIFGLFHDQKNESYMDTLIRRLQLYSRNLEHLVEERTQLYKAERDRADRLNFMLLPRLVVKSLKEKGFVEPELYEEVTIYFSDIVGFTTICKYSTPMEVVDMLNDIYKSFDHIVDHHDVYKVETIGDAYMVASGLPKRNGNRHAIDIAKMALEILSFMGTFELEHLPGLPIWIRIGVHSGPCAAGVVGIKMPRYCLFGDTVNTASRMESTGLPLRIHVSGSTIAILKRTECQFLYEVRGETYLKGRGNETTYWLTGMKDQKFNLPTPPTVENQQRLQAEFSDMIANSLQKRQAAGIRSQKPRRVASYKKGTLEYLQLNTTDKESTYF
smiles,measurement,setting,value
"CC(C)C[C@@H]1NC(=O)[C@H](CCC(=O)O)NC(=O)[C@@H](NC(=O)[C@H](CCC(=O)O)NC(=O)[C@H](CC(=O)O)NC(=O)[C@H](N)CC(N)=O)CSSC[C@@H]2NC(=O)[C@H](C)NC(=O)[C@H](C(C)C)NC(=O)[C@H](CC(N)=O)NC(=O)[C@H](C(C)C)NC(=O)[C@H](CSSC[C@@H](C(=O)N[C@H](CC(C)C)C(=O)O)NC(=O)CNC(=O)[C@H]([C@@H](C)O)NC2=O)NC1=O [SP-333, dAsn^1-Asp^2-Glu^3-Cys^4-Glu^5-Leu^6-Cys^7-Val^8-Asn^9-Val^10-Ala^11-Cys^12-Thr^13-Gly^14-Cys^15-dLeu^16] (H-[dN]DECELCVNVACTGC[dL]-OH; disulfide 4-12, 7-15; N-terminus and C-terminus assumed)",stability in simulated gastric and intestinal fluids,[1],stable
same,"crypts with normal Ki-67 labeling, comparison among groups",[2]; SP-333 0.005 mg/kg,greatest percentage of crypts with normal Ki-67 labeling
same,proportion of Ki-67 positive crypts,[2]; SP-333 0.005 mg/kg/day (DSS control 35.3±4.86%),60.4±6.96%
same,proportion of Ki-67 positive crypts,[2]; SP-333 0.05 mg/kg/day,58.7±7.3%
same,proportion of crypts with Ki-67 labeling vs DSS treated control,[2]; SP-333 treated sections,larger proportions of crypts with Ki-67 labeling
same,reduction of transcript levels of IKK-13,[3]; [7],approximately 50%
same,reduction of transcript levels of p65,[3]; [7],approximately 50%
same,decrease in IKKβ expression,[3]; [8],59%
same,decrease in p65 expression,[3]; [8],55%
same,histopathology score,"[4]; DSS+SP-333 0.005 mg/kg, representative image FIG. 10C (DSS alone 4)",1
same,histopathology score,"[4]; DSS+SP-333 0.05 mg/kg, representative image FIG. 10D",2
same,histopathology score,"[4]; DSS+SP-333 0.5 mg/kg, representative image FIG. 10E",2
same,amelioration of colitis compared with 5-ASA,[4]; SP-333 0.005 mg/kg oral,as effective as 5-ASA (100 mg/kg)
same,DAI,"[4]; SP-333 0.05 mg/kg oral, vs DSS vehicle control, p=0.041",significant reduction
same,mean DAI scores,[4]; [9],lower
same,mean scores of colitis severity,[4]; [9],lower
same,histological evaluation of colon tissues (crypts),[4]; SP-333 treatment groups,minimal loss of crypts with very low distortions in crypt morphology
same,concentration at which cGMP synthesis approached a plateau,[5]; FIG. 14,1 µM
same,cGMP production,[5]; FIG. 15,enhanced
same,reduction of MPO activity,[6]; SP-333 0.05 mg/kg,~50%
same,MPO activity,"[6]; SP-333 0.05 mg/kg, p=0.001 vs DSS group (0.048±0.004)",0.024±0.003 units/minute
same,MPO activity compared to DSS treated animals,"[6]; SP-333 all doses, significant (p<0.05) except 0.5 mg/kg",significantly lower; also recorded: considerably reduced; also recorded: much lower
